Source: publication PMC5520944 (Cell Death & Disease, 2017)
Where a name gives a salt, the structure may show the parent alone.

Key:
L929sAhFas = assay: cells; parameters: high-content necroptosis screen, percentage PI-positive nuclei as percent of DMSO plus stimulus control; details: mTNF-induced cell death, validation screen; read-out: Validation screen IC50 (µM) (TNF)
Text: To identify novel inhibitors or regulators of necroptosis, 500 small compounds from libraries targeting autophagy, kinases, phosphatases, proteases and redox balance were screened for their ability to block TNF-induced necroptosis in murine L929sAhFas cells. Three conditions were used to induce necroptosis in L929 cells: TNF alone, TNF+TAK1 inhibitor (TAK1i) and TNF+zVAD-fmk, a pan-caspase inhibitor. Inhibition of TAK1 or caspases sensitizes to necroptosis.[13], [32] Necroptosis, measured as the percentage of PI-positive nuclei normalized to the plate-specific DMSO control, was determined for each compound (Supplementary Figure 1A). Z’ values for the TNF- and TNF+TAK1i-induced cell death assay were 0.498 and 0.919, respectively (Supplementary Figures 2A and B), indicating good assay performance. Sorafenib was identified as an effective inhibitor of both TNF- and TNF+TAK1i-induced necroptosis (Figure 1a). […] In an independent screening with 437 FDA-approved drugs and TNF+zVAD-fmk as necroptosis trigger in L929 cells (Supplementary Figure 1B), Sorafenib was also shown to be a potent inhibitor (Figure 1b). […] After compound treatment, L929sAhFas (a) or L929 (b) cells were stimulated with mTNF (T), mTNF+Tak1i (TiT) or mTNF+zVAD (zVT) (Supplementary Figure 1A and B). (a) Cell death percentage (% PI-positive nuclei) or cell loss was calculated as percent of control (DMSO+stimulus). Green points marked by the green dotted line represent a selection of kinase inhibitors from the screening on L929sAhFas cells (Supplementary Table 1), that are only slightly protective in the TNF-stimulated condition. (b) Cell loss (luminescence-based readout for ATP) was calculated as percent of control (DMSO+stimulus). […] In stimulated conditions, % PI-positive nuclei was determined as % of DMSO control. Data represent mean values±S.E.M. of two independent experiments. Cells were stained with Hoechst and PI and percentage PI-positive nuclei was determined using high-content image analysis (BD pathway Bioimager). (d) L929sAhFas cells were treated with Sorafenib (concentration as indicated) for 24 h. Then, stimulus was removed, 50 cells/condition seeded and colonies counted with crystal violet staining after 10 days incubation. Quantification was performed using ImageJ. n=2, a representative experiment is shown Legends supplementary figures Supplementary Figure S1. Schemes of workflow screening assays in L929 cell lines. (A) Scheme of the workflow of a high-content screening assay on L929sAhFas cells using mTNF (T) and mTNF+Tak1i ((5Z)-7-Oxozeaenol) (TiT) to induce necroptotic cell death. Nec-1 and zVAD-fmk were used as protective and sensitizing benchmarks, respectively, on all plates. (B) Scheme of the workflow of a CellTiter-Glo luminescent cell viability screening assay on L929 cells using mTNF+zVAD (zVT) to induce necroptotic cell death. Supplementary Figure S2. Z’ calculation for cell death screening assays in L929 cells. (A) Z’ calculation for cell death screening assay (Fig. 1A) in mTNF-stimulated L929sAhFas cells. (B) Z’ calculation for cell death screening assay (Fig. 1A) in L929sAhFas cells stimulated with mTNF + Taki.

MEF = assay: cells; parameters: species or system L929sAhFas or MEF; protection from TNF-induced cell death, percentage PI-positive nuclei by high-content imaging; details: Mus musculus, mTNF + BV6, inhibition of induced cell death
Protocol: (c,d) HT-29 and Jurkat FADD−/− cells were pretreated for 1 h with DMSO, Nec-1 or Sorafenib (concentrations as indicated) and stimulated for 6 h with 30 ng/ml hTNF, 1 μM BV6 and 30 μM zVAD (HT-29) or stimulated for 10 h with 100 ng/ml hTNF (Jurkat FADD−/−). (a-d) Data were normalized to DMSO-treated control cells and represent the mean value±S.E.M. of three independent experiments. Toxic concentrations were removed from the analysis. L929sAhFas and MEF cells were stained with Hoechst and PI and percentage PI-positive nuclei was determined using high-content image analysis (BD pathway Bioimager). For HT-29 and Jurkat FADD−/− cells, cell death was determined by PI staining and flow cytometry. […] Cell death in AML cells was determined by PI staining and flow cytometry. […] Smac mimetic BV6[34] instead of TAK1i was used as a sensitizer for testing of mouse embryonic fibroblasts (MEF) and human cell lines. […] Since Sorafenib is used to treat AML,[27] we also included two AML cell lines to investigate whether it alters the sensitivity of these cells to necroptotic stimuli (BV6 in the presence of zVAD-fmk).[34]

## CNC(=O)c1cc(Oc2ccc(NC(=O)Nc3ccc(Cl)c(C(F)(F)F)c3)cc2)ccn1 [Sorafenib tosylate]
L929sAhFas
  IC50: 3.25 µM
MEF
  IC50: 2.2 ± 0.47 µM
